Values joined by “and” are separate entries in the source; they are usually repeats but may differ in a detail not shown here. Equal values may be shown once. Read-outs that look alike come from different tables or passages of the source.
Tests used:
Experiment in all cases: SelectScreen kinase assay
MAP4K4 (HGK) = MAP4K4 (HGK) (Homo sapiens, UniProt O95819); conditions: 1 h, 1 μM WEL028, 1 h preincubation
Protocol: (§1) Selectivity profiling assays were performed by the Invitrogen SelectScreen™ Services. […] The concentration of ATP was selected to be equal to the KM, unless indicated otherwise.

PRKCE (PKC epsilon) = PRKCE (PKC epsilon) (Homo sapiens, UniProt Q02156)
Protocol: as §1

CSNK1G2 (CK1 gamma 2) = CSNK1G2 (CK1 gamma 2) (Homo sapiens, UniProt P78368)
CSNK1G2 (CK1 gamma 2), sequence (P78368 whole entry): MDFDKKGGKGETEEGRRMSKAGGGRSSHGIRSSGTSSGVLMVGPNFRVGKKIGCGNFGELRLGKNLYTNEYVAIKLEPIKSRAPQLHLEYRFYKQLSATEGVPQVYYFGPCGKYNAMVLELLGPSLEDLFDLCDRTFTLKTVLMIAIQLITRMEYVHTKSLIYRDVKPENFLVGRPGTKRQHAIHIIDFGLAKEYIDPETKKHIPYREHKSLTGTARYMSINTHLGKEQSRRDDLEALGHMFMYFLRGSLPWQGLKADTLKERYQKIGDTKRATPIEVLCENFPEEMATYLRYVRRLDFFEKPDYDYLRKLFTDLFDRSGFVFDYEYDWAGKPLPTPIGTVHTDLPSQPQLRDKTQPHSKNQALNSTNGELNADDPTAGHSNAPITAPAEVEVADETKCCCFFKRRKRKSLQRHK
Protocol: as §1

STK22B (TSSK2) = biological target: T1, STK22B (TSSK2) (Homo sapiens, UniProt Q96PF2)
T1 sequence (Q96PF2 1-358): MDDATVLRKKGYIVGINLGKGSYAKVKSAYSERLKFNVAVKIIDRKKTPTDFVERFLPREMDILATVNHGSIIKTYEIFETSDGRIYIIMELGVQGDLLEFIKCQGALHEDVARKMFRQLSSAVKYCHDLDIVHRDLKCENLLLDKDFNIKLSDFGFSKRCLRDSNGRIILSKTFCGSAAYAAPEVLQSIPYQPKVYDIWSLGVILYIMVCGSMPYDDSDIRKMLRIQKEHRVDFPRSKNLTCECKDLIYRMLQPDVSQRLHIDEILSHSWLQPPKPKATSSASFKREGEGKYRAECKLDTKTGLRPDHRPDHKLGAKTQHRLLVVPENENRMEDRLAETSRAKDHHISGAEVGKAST
Protocol: as §1

STK33 = STK33 (Homo sapiens, UniProt Q9BYT3)
STK33, sequence (Q9BYT3 whole entry, species assumed): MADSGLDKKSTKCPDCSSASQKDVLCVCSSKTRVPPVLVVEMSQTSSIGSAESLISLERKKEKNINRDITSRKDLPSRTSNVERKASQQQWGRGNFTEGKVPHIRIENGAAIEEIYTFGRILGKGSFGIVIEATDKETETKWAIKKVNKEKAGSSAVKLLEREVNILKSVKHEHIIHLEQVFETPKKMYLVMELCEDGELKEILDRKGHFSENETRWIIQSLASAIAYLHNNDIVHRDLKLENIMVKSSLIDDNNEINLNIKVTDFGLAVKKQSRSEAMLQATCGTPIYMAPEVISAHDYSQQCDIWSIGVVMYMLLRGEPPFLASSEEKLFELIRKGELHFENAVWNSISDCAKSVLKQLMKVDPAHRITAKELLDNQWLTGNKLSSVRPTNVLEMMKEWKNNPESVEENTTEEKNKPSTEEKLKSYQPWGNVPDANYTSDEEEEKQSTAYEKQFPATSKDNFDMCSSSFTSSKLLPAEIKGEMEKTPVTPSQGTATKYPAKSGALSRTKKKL
Protocol: as §1

[1] = biological target: PIK3CA/PIK3R3 (p110 alpha/p55 gamma) (Homo sapiens, UniProt P42336); conditions: for Inhibition at 1 µM (%): PIK3CA/PIK3R3 (p110 alpha/p55 gamma), Adapta, ATP 10
PIK3CA/PIK3R3 (p110 alpha/p55 gamma), sequence (P42336 whole entry): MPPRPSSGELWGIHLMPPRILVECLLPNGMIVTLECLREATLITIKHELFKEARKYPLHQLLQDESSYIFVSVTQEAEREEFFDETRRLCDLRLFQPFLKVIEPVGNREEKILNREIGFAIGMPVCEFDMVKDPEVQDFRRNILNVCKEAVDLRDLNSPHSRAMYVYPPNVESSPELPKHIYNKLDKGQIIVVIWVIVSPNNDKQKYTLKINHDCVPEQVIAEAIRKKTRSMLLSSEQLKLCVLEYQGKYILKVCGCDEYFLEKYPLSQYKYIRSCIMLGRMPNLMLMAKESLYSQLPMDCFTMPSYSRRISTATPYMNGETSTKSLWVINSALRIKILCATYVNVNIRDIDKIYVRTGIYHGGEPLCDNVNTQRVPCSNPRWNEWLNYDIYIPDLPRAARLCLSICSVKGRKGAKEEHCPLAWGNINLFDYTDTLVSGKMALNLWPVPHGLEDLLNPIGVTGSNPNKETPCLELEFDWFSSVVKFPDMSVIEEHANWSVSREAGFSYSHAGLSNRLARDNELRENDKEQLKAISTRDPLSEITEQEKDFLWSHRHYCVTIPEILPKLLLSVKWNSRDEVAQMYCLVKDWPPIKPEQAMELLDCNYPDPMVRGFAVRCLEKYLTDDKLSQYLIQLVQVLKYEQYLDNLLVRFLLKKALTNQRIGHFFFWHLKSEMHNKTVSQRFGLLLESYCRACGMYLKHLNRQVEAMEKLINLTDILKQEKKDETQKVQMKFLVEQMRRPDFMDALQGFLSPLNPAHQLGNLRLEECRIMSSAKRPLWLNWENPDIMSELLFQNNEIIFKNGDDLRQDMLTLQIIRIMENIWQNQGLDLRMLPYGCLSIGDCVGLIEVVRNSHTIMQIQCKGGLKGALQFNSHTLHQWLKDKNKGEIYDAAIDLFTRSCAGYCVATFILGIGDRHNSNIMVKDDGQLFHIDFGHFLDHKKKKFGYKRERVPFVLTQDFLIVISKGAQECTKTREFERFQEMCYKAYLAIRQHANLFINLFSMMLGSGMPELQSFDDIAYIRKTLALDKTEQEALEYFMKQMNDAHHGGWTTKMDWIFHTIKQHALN
Protocol: as §1

PRKCA (PKC alpha) = PRKCA (PKC alpha) (Homo sapiens, UniProt P17252)
Protocol: as §1

LATS2 = biological target: T2, LATS2 (Homo sapiens, UniProt Q9NRM7); conditions: for Inhibition at 1 µM (%): LATS2, LanthaScreen Binding
T2 sequence (Q9NRM7 1-1088): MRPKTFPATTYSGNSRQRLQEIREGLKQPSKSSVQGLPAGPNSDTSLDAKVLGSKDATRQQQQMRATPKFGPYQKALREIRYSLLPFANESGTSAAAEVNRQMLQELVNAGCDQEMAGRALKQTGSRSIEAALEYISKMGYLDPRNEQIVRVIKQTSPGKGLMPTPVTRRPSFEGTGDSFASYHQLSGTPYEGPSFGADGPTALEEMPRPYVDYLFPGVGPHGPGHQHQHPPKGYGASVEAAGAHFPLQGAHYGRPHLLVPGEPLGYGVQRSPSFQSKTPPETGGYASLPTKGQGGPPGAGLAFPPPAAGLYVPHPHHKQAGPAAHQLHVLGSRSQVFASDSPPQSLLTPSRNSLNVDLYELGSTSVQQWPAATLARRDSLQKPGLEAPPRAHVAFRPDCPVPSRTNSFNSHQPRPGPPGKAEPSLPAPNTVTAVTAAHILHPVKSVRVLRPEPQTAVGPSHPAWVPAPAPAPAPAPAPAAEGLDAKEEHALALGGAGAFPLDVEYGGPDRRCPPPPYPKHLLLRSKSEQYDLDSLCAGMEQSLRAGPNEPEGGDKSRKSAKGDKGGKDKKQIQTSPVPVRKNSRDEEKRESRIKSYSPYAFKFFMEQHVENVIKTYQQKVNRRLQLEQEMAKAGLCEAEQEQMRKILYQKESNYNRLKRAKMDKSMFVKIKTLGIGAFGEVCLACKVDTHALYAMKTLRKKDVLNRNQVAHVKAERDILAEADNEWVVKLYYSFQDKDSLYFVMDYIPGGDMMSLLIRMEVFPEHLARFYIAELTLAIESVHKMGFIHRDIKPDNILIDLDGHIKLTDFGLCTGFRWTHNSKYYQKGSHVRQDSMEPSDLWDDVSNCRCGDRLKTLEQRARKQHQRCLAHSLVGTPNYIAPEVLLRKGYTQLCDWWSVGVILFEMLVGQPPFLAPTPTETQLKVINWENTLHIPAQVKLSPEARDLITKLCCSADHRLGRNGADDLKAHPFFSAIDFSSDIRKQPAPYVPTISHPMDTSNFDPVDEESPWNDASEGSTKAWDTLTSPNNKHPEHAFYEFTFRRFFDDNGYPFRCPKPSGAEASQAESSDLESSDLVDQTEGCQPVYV
Protocol: as §1

[2] = 1 h, 1 μM WEL028, 1 h preincubation

PRKCE (PKC epsilon), sequence (Q02156 whole entry): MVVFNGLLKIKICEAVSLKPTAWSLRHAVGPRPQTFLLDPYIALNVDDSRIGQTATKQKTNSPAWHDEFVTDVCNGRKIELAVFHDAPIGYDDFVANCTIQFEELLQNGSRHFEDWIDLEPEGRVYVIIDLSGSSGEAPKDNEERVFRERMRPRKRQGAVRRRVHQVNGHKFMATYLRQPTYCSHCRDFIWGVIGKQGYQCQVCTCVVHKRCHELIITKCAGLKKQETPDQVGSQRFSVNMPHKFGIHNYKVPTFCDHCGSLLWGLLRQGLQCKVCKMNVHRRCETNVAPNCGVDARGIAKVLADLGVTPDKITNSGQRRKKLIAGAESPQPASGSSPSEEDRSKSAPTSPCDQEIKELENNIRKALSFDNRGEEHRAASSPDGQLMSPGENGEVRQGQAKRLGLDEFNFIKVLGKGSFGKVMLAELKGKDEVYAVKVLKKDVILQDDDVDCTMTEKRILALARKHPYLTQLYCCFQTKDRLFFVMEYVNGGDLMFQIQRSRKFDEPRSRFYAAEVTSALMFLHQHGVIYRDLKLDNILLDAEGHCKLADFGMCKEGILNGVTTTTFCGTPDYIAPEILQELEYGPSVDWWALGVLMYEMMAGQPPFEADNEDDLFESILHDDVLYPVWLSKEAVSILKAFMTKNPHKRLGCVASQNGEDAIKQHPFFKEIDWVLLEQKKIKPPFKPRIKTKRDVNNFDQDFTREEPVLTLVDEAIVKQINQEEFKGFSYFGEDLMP

For `C#CCOc1ccc(Nc2ncc(Cl)c(Nc3ccccc3NC(=O)C=C)n2)c(OC)c1` [Compound 6], which inhibition at 1 µM (MAP4K4 (HGK)) is on record?
The inhibition at 1 µM was 7%.

What about the inhibition at 1 µM (PRKCE (PKC epsilon); [2]) of the same molecule?
The inhibition at 1 µM was -13%.

And the “Inhibition at 1 µM (%)” value (PRKCE (PKC epsilon); PRKCE (PKC epsilon), 1 µM, ZLYTE, ATP Km app, listed as WEL028, 1 µM)?
Its value is -15% and -11%.

And the “Inhibition (%)” value (CSNK1G2 (CK1 gamma 2); 1 μM WEL028, 1 h preincubation)?
Its value is 4%.

What about the “Inhibition at 1 µM (%)” value (CSNK1G2 (CK1 gamma 2); CSNK1G2 (CK1 gamma 2), 1 µM, ZLYTE, ATP Km app, listed as WEL028, 1 µM) of the same molecule?
Its value is 7% and 1%.

And the “Inhibition at 1 µM (%)” value (STK22B (TSSK2); 1 µM, ZLYTE, ATP Km app, listed as WEL028, 1 µM)?
Its value is 17%.

What about the inhibition at 1 µM (STK22B (TSSK2); [2]) of the same molecule?
The inhibition at 1 µM was 18%.

And the inhibition at 1 µM (STK22B (TSSK2); read-out: Inhibition at 1 µM (%), 1 µM, ZLYTE, ATP Km app)?
The inhibition at 1 µM was 18%.

What about the IC50 (STK33) of the same molecule?
Its IC50 is 1000 nM.

What about the “Inhibition at 1 µM (%)” value (STK33; 1 µM, LanthaScreen Binding, listed as WEL028, 1 µM) of the same molecule?
Its value is 61%.

And the inhibition at 1 µM (STK33; [2])?
The inhibition at 1 µM was 60%.

And the inhibition at 10 µM (STK33; 1 h, log[inhibitor] (M) -5.00, LanthaScreen Binding)?
Its inhibition at 10 µM is 33%.

What about the inhibition at 3.311 µM (STK33; 1 h, log[inhibitor] (M) -5.48, LanthaScreen Binding) of the same molecule?
The inhibition at 3.311 µM was 58%.

What about the inhibition at 1.122 µM (STK33; 1 h, log[inhibitor] (M) -5.95, LanthaScreen Binding) of the same molecule?
Its inhibition at 1.122 µM is 69%.

And the inhibition at 0.3715 µM (STK33; 1 h, log[inhibitor] (M) -6.43, LanthaScreen Binding)?
The inhibition at 0.3715 µM was 43%.

What about the inhibition at 0.123 µM (STK33; 1 h, log[inhibitor] (M) -6.91, LanthaScreen Binding) of the same molecule?
The inhibition at 0.123 µM was 23%.

What about the inhibition at 0.04074 µM (STK33; 1 h, log[inhibitor] (M) -7.39, LanthaScreen Binding) of the same molecule?
The inhibition at 0.04074 µM was 19%.

And the inhibition at 0.0138 µM (STK33; 1 h, log[inhibitor] (M) -7.86, LanthaScreen Binding)?
Its inhibition at 0.0138 µM is 6%.

What about the inhibition at 0.004571 µM (STK33; 1 h, log[inhibitor] (M) -[…], LanthaScreen Binding) of the same molecule?
Its inhibition at 0.004571 µM is 7%.

And the Apparent fold selectivity (STK33; IC50 on that kinase divided by IC50 on FES^S700C)?
Its Apparent fold selectivity is 254 fold.

And the inhibition at 1 µM (STK33; read-out: Inhibition at 1 µM (%), 1 µM, LanthaScreen Binding)?
The inhibition at 1 µM was 59%.

And the inhibition at 1 µM [1, 2]?
The inhibition at 1 µM was 1%.

What about the “Inhibition at 1 µM (%)” value [1] of the same molecule?
The value was 2%.

And the “Inhibition at 1 µM (%)” value ([1]; listed as WEL028, 1 µM)?
Its value is -1%.

What about the inhibition at 1 µM (PRKCA (PKC alpha); [2]) of the same molecule?
The inhibition at 1 µM was 14%.

And the “Inhibition at 1 µM (%)” value (PRKCA (PKC alpha); PRKCA (PKC alpha), 1 µM, ZLYTE, ATP Km app, listed as WEL028, 1 µM)?
The value was 10%.

What about the inhibition at 1 µM (PRKCA (PKC alpha); read-out: Inhibition at 1 µM (%), PRKCA (PKC alpha), 1 µM, ZLYTE, ATP Km app) of the same molecule?
Its inhibition at 1 µM is 19%.

And the “Inhibition (%)” value (LATS2; 1 μM WEL028, 1 h preincubation)?
The value was 2%.

And the “Inhibition at 1 µM (%)” value (LATS2)?
Its value is 3%.

What about the “Inhibition at 1 µM (%)” value (LATS2; listed as WEL028, 1 µM) of the same molecule?
Its value is 0%.

— paper PMC7316778 (Nature Communications, 2020)
